From patent US12721894B2, “Method and system for applying pulsed electric fields with high uniformity using charged ring structures” (The Phantom Laboratory, Incorporated, priority 2020, dated 2026)

Key:
[1] = test system: 4T1 murine breast cancer cells; assay: Ectopic 4T1 homografts in BALBc mice: tumor size and survival after TOL; type: in vivo, mouse; details: paclitaxel 20 mg/kg i.p. post-inoculation day 5; TOL: digoxin 3 mg/kg x8 + 4x30 min PEF 18 V/m on 2 successive days; n=12; FIG. 7
Method: FIG. 4 illustrates the average size of 4T1 homographs seen before and after each single treatment with TOL in which the duration of each of four exposures to PEFs of 18 V/m varied from 5-60 minutes (n=15). […] Further increase in stimulation duration had less of an effect on tumor reduction. Optimum tumor reduction is observed when the mice are exposed to a PEF for 30 minutes, or a range of exceeding 15 minutes and less than 60 minutes.
FIG. 6 depicts in vivo validation of the therapeutic efficacy of pulsed electric fields (PEFs) inducing osmotic lysis in a breast cancer mouse model. Ectopic homografts of 4T1 murine breast cancer cells were established in female, immune competent BALBc mice (n=12). The “TOL” group was injected with digoxin (7 mg/kg) and then exposed to the PEFs generated by a ring device. […] Tumor size was measured daily, beginning on Day 0 (first day of treatment) and every other day after Day 3 until NIH humane endpoint criteria were met for euthanasia.
FIG. 7 depicts in vivo validation of the therapeutic efficacy of pulsed electric fields (PEFs) inducing osmotic lysis in comparison to paclitaxel in a breast cancer mouse model. […] Homografts were measured on post-inoculation day 6 (treatment day 0), and again on post-treatment days 1 and 2 and then every other day until the criteria for humane endpoint euthanasia was met. […]

[2] = test system: voltage gated sodium channel (VGSC); assay: Immunohistochemical labeling of VGSC in 4T1 homografts; type: in vivo, mouse; details: 1 and 2 days after treating with paclitaxel; FIG. 8
From the text: FIGS. 5A-5C depict the immunohistochemical labeling of voltage gated sodium channel (VGSC) in 4T1 homografts before (FIG. 5A) and after (FIG. 5B) a single 2-day treatment with TOL. Nuclei are counterstained with DRAQ5™ fluorescent probe. […] Low power calibration bar in FIG. 5B is 50 μm and the high power calibration bar in the inset is 25 μm. […] This observation may explain, in part the loss of TOL's efficacy that is observed after the first 2 days of treatment.
FIGS. 8A-8D depicts the immunohistochemical labeling of VGSC in 4T1 homografts before (FIG. 8A), 1 (FIG. 8B) and 2 days (FIG. 8C) after treating with paclitaxel. Nuclei are counterstained with DRAQ5. […] Low power calibration bar in FIG. 8B is 50 μm and the high power calibration bar in the inset in FIG. 8C is 25 μm. […] It is noted that there is a progressive reduction of VGSC labeling but not in the number of cells that express the highest levels of VGSC. […] The decrease in expression of VGSC is likely to contribute in the reduced efficacy of TOL when used concurrently with paclitaxel.

CC(=O)O[C@H]1C(=O)[C@@]2(C)[C@H]([C@H](OC(=O)c3ccccc3)[C@]3(O)C[C@H](OC(=O)[C@H](O)[C@@H](NC(=O)c4ccccc4)c4ccccc4)C(C)=C1C3(C)C)[C@]1(OC(C)=O)CO[C@@H]1C[C@@H]2O [paclitaxel]
time from inoculation to humane endpoint euthanasia (survival) [1]: no significant effect on survival over controls
VGSC expression [2]: decreases significantly and progressively
